Test results reported in patent publication US20160137714A1 (Thrasos Innovation, Inc., priority 2014, published 2016).
Positions of bridges follow the written chain, without caps; N, C: chain ends. Non-standard residues stand in square brackets, D forms with d. Residues, ends and D or L forms follow the SMILES beside them.

Columns and labels:
[1] = In vitro plasma stability in heparin-treated fresh rat plasma at 37° C.; format: in vitro ADME; details: for AUC0-240: time 0 to 240 minutes; for remaining at 1 min, 1 μM / remaining at 5 min, 1 μM / remaining at 0.25 h, 1 μM / remaining at 0.5 h, 1 μM / remaining at 1 h, 1 μM / remaining at 2 h, 1 μM: heparin-treated fresh rat plasma
Description: GPR-397 and GPR-405 were independently added to fresh rat plasma at a final in-vial concentration of 1 μM. The peptides were incubated in a water bath at 37° C. over a time course that included the following points (in minutes): 0, 1, 5, 15, 30, 60, 120, 240, and 1440. After the incubation time was completed, a 50 μL aliquot of plasma was removed and proteins were precipitated using a solution containing internal standard (THR-123 at 150 ng/mL) in methanol with 0.5% acetic acid (v/v). The samples were centrifuged at 13,000 RPM for 5 minutes, and a 100 μL aliquot of supernatant was removed and transferred to a 96-well plate containing 100 μL of reconstitution solution (Water/MeOH/Acetic Acid/TFA, 60/40/0.2/0.05, v/v/v/v). A calibration curve and quality control (QC) samples were prepared in parallel in the same manner as the incubation samples. The calibration range for this assay was from 0.02 to 2.0 μM in rat plasma. The extracted calibrants, QC, and incubation samples were injected onto an AB SCIEX API 2000 LC-MS/MS system. Chromatographic separation was performed using a reversed-phase C18 HPLC column (Ace-3 C18, 30×2.1 mm, 3 μm). The solvent system consisted of Milli-Q water, acetonitrile and formic acid. Analyte and internal standard were detected using the multiple reaction monitoring (MRM) scan mode. Calibration curves were generated by using a weighted (1/concentration) quadratic regression analysis of the peak area ratios (analyte/internal standard) versus the nominal concentration of the calibration standards. The concentration of the analyte in the incubation samples was determined by back-calculating the peak area ratios obtained using the quadratic regression.
FIGS. 9-12 compare the in vitro plasma stability results for GPR-405 and THR-123 incubated in fresh rat plasma treated with heparin. FIG. 9 provides a scatter plot showing the first 240 minutes of the time-course and disappearance of the THR peptides in heparin-treated fresh rat plasma at 37° C. […] FIG. 12 compares the calculated half-life of THR-123 and GPR-405.

[2] = Pharmacokinetic studies of THR-123 and GPR-294 i.v. and s.c. (FIG. 13, FIGS. 5-8); format: in vivo; details: in vivo; s.c. versus i.v., FIG. 13; read-out: bioavailable by sub-cutaneous administration
Description: A stock solution of THR-123 was prepared at 250 μg/mL in DMSO. This solution was quantitatively added to blank mouse plasma to generate a calibration curve. The linear range was from 0.25 to 250 ng/mL. A 175 μL aliquot of plasma from removed from each calibrant tube and processed using solid phase extraction (SPE). Study samples were first diluted with blank control mouse plasma, and 175 μL was aliquoted for processing using SPE. An internal standard working solution (ISWS) was added to each calibrant and study sample (GPR-227 at 100 ng/mL in water). Plasma proteins were precipitated with 175 μL of methanol with 0.5% acetic acid (v/v). After centrifugation at 14,800 RPM for 10 minutes, a 300 μL aliquot of supernatant was diluted in water with 4% phosphoric acid (v/v). The entire diluted sample was extracted by SPE using a Waters Oasis HLB 96-well μElution plate. Samples were washed twice using a solution of acidified water (0.1% TFA, v/v) and 15% MeOH in water (v/v). Purified extracts were eluted into a 96-well collection plate using 40 μL of elution solvent. Standards and study samples were injected onto a Thermo Q-exactive LC-MS/MS system. Chromatographic separation was performed using a reversed-phase C18 HPLC column (Waters CSH C18, 50×2.1 mm, 2.5 μm). Analyte and internal standard were detected using the targeted selected ion monitoring (tSIM) scan mode. Calibration curves were generated by using a weighted (1/concentration^2) linear regression of the peak area ratios (analyte/internal standard) versus the nominal concentration of the calibration standards. The concentration of the analyte in the study samples was determined by back-calculating the peak area ratios obtained using the linear regression and applying the appropriate dilution factors.
The study described herein involved single (mouse) or multiple (rat) blood collections after test article administration. Test articles are given by oral (PO), intravenous (IV), subcutaneous (SC) or intraperitoneal (IP) routes. All animals have a five day acclimatization period before dosing. Body weights are recorded prior to dosing. […]

[3] = fresh rat plasma 37° C., 1 μM peptide, 0 min
[4] = fresh rat plasma 37° C., 1 μM peptide, 1 min
[5] = fresh rat plasma 37° C., 1 μM peptide, 5 min
[6] = fresh rat plasma 37° C., 1 μM peptide, 15 min
[7] = fresh rat plasma 37° C., 1 μM peptide, 30 min
[8] = fresh rat plasma 37° C., 1 μM peptide, 60 min
[9] = fresh rat plasma 37° C., 1 μM peptide, 120 min
[10] = fresh rat plasma 37° C., 1 μM peptide, 240 min
[11] = fresh rat plasma 37° C., 1 μM peptide, 240 min (4 hours), read-out: TI remaining
[12] = fresh rat plasma 37° C., 1 μM peptide, 1440 min
[13] = fresh rat plasma 37° C., 1 μM peptide
[14] = fresh rat plasma treated with heparin in vitro at 37° C.
[15] = fresh rat plasma 37° C., 1 μM peptide, 1 min, read-out: TI remaining
[16] = fresh rat plasma 37° C., 1 μM peptide, 5 min, read-out: TI remaining
[17] = fresh rat plasma 37° C., 1 μM peptide, 15 min, read-out: TI remaining
[18] = fresh rat plasma 37° C., 1 μM peptide, 30 min, read-out: TI remaining
[19] = fresh rat plasma 37° C., 1 μM peptide, 60 min, read-out: TI remaining
[20] = fresh rat plasma 37° C., 1 μM peptide, 120 min, read-out: TI remaining

CC(C)C[C@@H]1NC(=O)[C@H](C(C)C)NC(=O)[C@H](CCC(N)=O)NC(=O)[C@H](CO)NC(=O)[C@H](CO)NC(=O)[C@H](CC(N)=O)NC(=O)[C@H](Cc2ccccc2)NC(=O)[C@H](Cc2ccc(O)cc2)NC(=O)[C@H](Cc2ccc(O)cc2)NC(=O)[C@@H](N)CSSC[C@@H](C(=O)N[C@@H](CCCCN)C(=O)N[C@@H](CCCNC(=N)N)C(=O)N[C@H](Cc2ccc(O)cc2)C(=O)N[C@@H](CCCNC(=N)N)C(=O)N[C@@H](CO)C(=O)O)NC1=O [GPR-405, Cys-Tyr-Tyr-Phe-Asn-Ser-Ser-Gln-Val-Leu-Cys-Lys-Arg-(D)Tyr-Arg-Ser] (H-CYYFNSSQVLCKR[dY]RS-OH; disulfide 1-11)
Mean plasma concentration [1, 3]: 1095 nM | Sample 1 plasma concentration [1, 3]: 1.100 µM | Sample 2 plasma concentration [1, 3]: 1.090 µM | TI remaining [1, 3]: 100% | Mean plasma concentration [1, 4]: 1065 nM | Sample 1 plasma concentration [1, 4]: 1.080 µM | Sample 2 plasma concentration [1, 4]: 1.050 µM | Mean plasma concentration [1, 5]: 1105 nM | Sample 1 plasma concentration [1, 5]: 1.090 µM | Sample 2 plasma concentration [1, 5]: 1.120 µM | Mean plasma concentration [1, 6]: 1065 nM | Sample 1 plasma concentration [1, 6]: 1.080 µM | Sample 2 plasma concentration [1, 6]: 1.050 µM | TI remaining [1, 6]: 97.3% | Mean plasma concentration [1, 7]: 1002 nM | Sample 1 plasma concentration [1, 7]: 0.963 µM | Sample 2 plasma concentration [1, 7]: 1.040 µM | Mean plasma concentration [1, 8]: 934 nM | Sample 1 plasma concentration [1, 8]: 0.895 µM | Sample 2 plasma concentration [1, 8]: 0.973 µM | Mean plasma concentration [1, 9]: 826 nM | Sample 1 plasma concentration [1, 9]: 0.836 µM | Sample 2 plasma concentration [1, 9]: 0.815 µM | Mean plasma concentration [1, 10]: 538 nM | Sample 1 plasma concentration [1, 10]: 0.534 µM | Sample 2 plasma concentration [1, 10]: 0.541 µM | TI remaining ([1]; fresh rat plasma 37° C., 1 μM peptide, 240 min (4 hours)): 49.1% | remaining at 4 h [1, 11]: 49.1% | Mean plasma concentration [1, 12]: 75 nM | Sample 1 plasma concentration [1, 12]: 0.081 µM | Sample 2 plasma concentration [1, 12]: 0.068 µM | TI remaining ([1]; fresh rat plasma 37° C., 1 μM peptide, 1440 min (24 hours)): 6.8% | remaining at 24 h ([1]; fresh rat plasma 37° C., 1 μM peptide, 1440 min (24 hours), read-out: TI remaining): 6.8% | AUC0-240 [1, 13]: 195.4 μM* min/ml | measured half-life relative to that of THR-123 [1, 14]: about 100 times | stability compared with THR-123 [1, 14]: dramatically more stable than THR-123 | remaining at 1 min, 1 μM [1, 15]: 97.3% | remaining at 5 min, 1 μM [1, 16]: 101% | remaining at 0.25 h, 1 μM [1, 17]: 97.3% | remaining at 0.5 h, 1 μM [1, 18]: 91.5% | remaining at 1 h, 1 μM [1, 19]: 85.3% | remaining at 2 h, 1 μM [1, 20]: 75.4%

CC(C)C[C@@H]1NC(=O)[C@H](C(C)C)NC(=O)[C@H](CC(N)=O)NC(=O)[C@H](CO)NC(=O)[C@H](CO)NC(=O)[C@H](CC(=O)O)NC(=O)[C@H](CC(=O)O)NC(=O)[C@H](Cc2ccccc2)NC(=O)[C@H](Cc2ccc(O)cc2)NC(=O)[C@@H](N)CSSC[C@@H](C(=O)N[C@@H](CCCCN)C(=O)N[C@@H](CCCCN)C(=O)N[C@@H](Cc2ccc(O)cc2)C(=O)N[C@@H](CCCNC(=N)N)C(=O)N[C@@H](CO)C(=O)O)NC1=O [THR-123, Cys-Tyr-Phe-Asp-Asp-Ser-Ser-Asn-Val-Leu-Cys-Lys-Lys-Tyr-Arg-Ser] (H-CYFDDSSNVLCKKYRS-OH; disulfide 1-11)
Mean plasma concentration [1, 3]: 905 nM | Sample 1 plasma concentration [1, 3]: 0.970 µM | Sample 2 plasma concentration [1, 3]: 0.840 µM | TI remaining [1, 3]: 100% | Mean plasma concentration [1, 4]: 855 nM | Sample 1 plasma concentration [1, 4]: 0.850 µM | Sample 2 plasma concentration [1, 4]: 0.860 µM | Mean plasma concentration [1, 5]: 295 nM | Sample 1 plasma concentration [1, 5]: 0.300 µM | Sample 2 plasma concentration [1, 5]: 0.290 µM | Mean plasma concentration [1, 6]: 55 nM | Sample 1 plasma concentration [1, 6]: 0.060 µM | Sample 2 plasma concentration [1, 6]: 0.050 µM | Mean plasma concentration [1, 7]: 30 nM | Sample 1 plasma concentration [1, 7]: 0.060 µM | Sample 2 plasma concentration [1, 7]: 0.030 µM | Mean plasma concentration [1, 8]: 25 nM | Sample 1 plasma concentration [1, 8]: 0.026 µM | Sample 2 plasma concentration [1, 8]: 0.024 µM | Mean plasma concentration [1, 9]: 18 nM | Sample 1 plasma concentration [1, 9]: 0.015 µM | Sample 2 plasma concentration [1, 9]: 0.020 µM | Mean plasma concentration [1, 10]: 11 nM | Sample 1 plasma concentration [1, 10]: 0.010 µM | Sample 2 plasma concentration [1, 10]: 0.011 µM | remaining at 4 h [1, 11]: 1.2% | AUC0-240 [1, 13]: 15.65 μM* min/ml | remaining at 1 min, 1 μM [1, 15]: 94.4% | remaining at 5 min, 1 μM [1, 16]: 32.4% | remaining at 0.25 h, 1 μM [1, 17]: 6.4% | remaining at 0.5 h, 1 μM [1, 18]: 3.3% | remaining at 1 h, 1 μM [1, 19]: 2.8% | remaining at 2 h, 1 μM [1, 20]: 1.9% | bioavailability [2]: 81%
